Assay results as given in patent publication US12478661B2, “Lung cell treatments to prevent or treat disease” (THE JOHNS HOPKINS UNIVERSITY, priority 2017, dated 2025).

Experiments:
[1] = tested on: primary ciliated normal human bronchial epithelial cells (NHBEs); assay: Airway surface liquid (ASL) thickness in primary NHBEs at air liquid interface; assay type: cell-based; conditions: CATR 20 μM; for effect on the ANT2 overexpression increase in ASL: BKA 4 μM apical 18 hours, apyrase 10 units 4 hours
Experimental: (§1) The apical surface of cells was washed once with PBS 18 hours prior to the addition of Texas Red. ASL was visualized by adding 10-kD Texas Red-dextran (17.5 μl per 12-well insert, ThermoFisher) to the apical surface of NHBE or HBEKT cultures at air liquid interface, as previously described. ASL was imaged 4 hours later by acquiring 4×4 tiled z-stacks by live-cell confocal microscopy with a heat and CO2 controlled stage (Zeiss 780 with a 40× water objective). Fluorinert ([…] was added to the top of the insert cultures immediately prior to imaging to prevent evaporation. Z-stacks were analyzed by segmentation and pixel thickness analysis. For experiments with ANT inhibitors, CATR (20 μM, Sigma) and BKA (4 μM, Sigma) in 20 μl PBS (or control PBS alone) were added to the apical surface of ALI cultures (NHBEs or HBEKTs) 18 hours prior to ASL assessment. Texas Red was added 4 hours prior to ASL testing. For apyrase treatment, 10 units of apyrase (Sigma) was added with Texas Red-dextran as described above 4 hours prior to ASL assessment.
Thickness across the sample was computed using a custom script, written in Matlab (Mathworks, Natick, MA). Briefly, for each value x in the three-dimensional images, Im(x,y, z), the resultant (y, z) slice was segmented using adaptive thresholding (Matlab command: imbinarize), followed by operations to fill holes (imfill), morphological opening (imopen) and filtering of small regions (bwareaopen) (FIG. 13a). The threshold level was adjusted after preprocessing the complete image and the process repeated. For each y in this binary image, the number of segmented pixels was counted, giving a measure of the thickness in the (x, y) location; see FIG. 13. This gave a histogram of depths over the image (FIG. 13c). An average depth was computed for all pixels in which a non-zero depth was detected (to avoid edge effects). The process was repeated by fixing y and working with the (x, z) slice. The differences between the averages were typically less than 1-2%. Thickness in pixels was converted to μm using a slice thickness of 0.46 μm, the step size used to collect the z-stack.

[2] = tested on: HBEKT cells; assay: Seahorse Mitostress cellular metabolism (OCR, ATP production, proton leak); assay type: cell-based, human; conditions: 30 min after injection, CATR 20 μM, BKA 4 μM
Experimental: For metabolic analysis, HBEKT cells were cultured in 96-well Seahorse assay plates (Agilent) and infected with adenovirus constructs for ANT1, ANT2 and control for target overexpression at 48 hours (MOI 40, Vector BioLabs) or siRNA target suppression using siRNA and Lipofectamine as described above for ANT1, ANT2 or non-targeting control siRNA at 72 hours. After viral infection or siRNA transfection, cells were treated for 4 hours with KSFM media alone or 20% CSE. Cells were washed once in KSFM, followed by washes in buffered Seahorse Assay medium (pH 7.4) and subsequent metabolic testing according to the manufacturer's protocol (Agilent Seahorse XF96). Oligomycin (2 μM, ATPase inhibitor), FCCP (0.25 μM mitochondrial uncoupler) and a cocktail of rotenone (0.5 μM, ETC complex I inhibitor) and antimycin A (0.5 μM, ETC complex III inhibitor) were sequentially injected after three basal rates were measured. Sample measurements were normalized to total cellular mass determined by CyQuant Assay according to the manufacturer protocol (Molecular Probes, ThermoFisher). For experiments including ANT specific inhibitors, carboxyatractyloside (CATR, 20-μM, Sigma), Bongkrekic acid (BKA, 4-μM, Sigma) or vehicle control were injected into wells after basal OCR measurements were taken followed by repeat OCR measurements 30 minutes after compound injection. […]

[3] = tested on: HBEKT cells; assay: Airway surface liquid (ASL) height in HBEKTs at air liquid interface; assay type: cell-based, human; conditions: CATR 20 μM, BKA 4 μM
Experimental: as §1
Thickness across the sample was computed using a custom script, written in Matlab (Mathworks, Natick, MA). […] For each y in this binary image, the number of segmented pixels was counted, giving a measure of the thickness in the (x, y) location; see FIG. 13. […]

Molecule: CO[C@H](C/C=C\C=C\CC/C=C/C[C@H](C)/C=C/C(=C\C(=O)O)CC(=O)O)/C(C)=C\C=C(/C)C(=O)O [Bongkrekic acid]
- effect on the ANT2 overexpression increase in ASL [1]: abrogated
- ATP production after ANT inhibitor [2]: halted
- basal oxidative respiration after ANT inhibitor [2]: halted
- effect on the ANT2 enhancement of ASL height [3]: abolished

Molecule: C=C1[C@@H]2CC[C@H]3[C@]4(C)C[C@H](O[C@@H]5O[C@H](CO)[C@@H](OS(=O)(=O)O)[C@H](OS(=O)(=O)O)[C@H]5OC(=O)CC(C)C)CC(C(=O)O)(C(=O)O)[C@H]4CC[C@]3(C2)[C@H]1O [carboxyatractyloside]
- ASL in control virus-treated cells [1]: trend towards decreasing ASL
- effect on the ANT2 overexpression increase in ASL [1]: abrogated
- effect on the ANT2 enhancement of ASL height [3]: abolished

Molecule: apyrase
- effect on the ANT2 overexpression increase in ASL [1]: reversed
